# Data taken from BindingDB's records for doi:10.7270/Q2N58JV3 (Burnham Center For Chemical Genomics, 2010).
# Molecular target: Polyadenylate-binding protein 1 (Homo sapiens, UniProt P11940)
# Test: PABP inhibition in translation initiation, SAR follow-up (AID 435018)
# Sequence of Polyadenylate-binding protein 1 (P11940 whole entry): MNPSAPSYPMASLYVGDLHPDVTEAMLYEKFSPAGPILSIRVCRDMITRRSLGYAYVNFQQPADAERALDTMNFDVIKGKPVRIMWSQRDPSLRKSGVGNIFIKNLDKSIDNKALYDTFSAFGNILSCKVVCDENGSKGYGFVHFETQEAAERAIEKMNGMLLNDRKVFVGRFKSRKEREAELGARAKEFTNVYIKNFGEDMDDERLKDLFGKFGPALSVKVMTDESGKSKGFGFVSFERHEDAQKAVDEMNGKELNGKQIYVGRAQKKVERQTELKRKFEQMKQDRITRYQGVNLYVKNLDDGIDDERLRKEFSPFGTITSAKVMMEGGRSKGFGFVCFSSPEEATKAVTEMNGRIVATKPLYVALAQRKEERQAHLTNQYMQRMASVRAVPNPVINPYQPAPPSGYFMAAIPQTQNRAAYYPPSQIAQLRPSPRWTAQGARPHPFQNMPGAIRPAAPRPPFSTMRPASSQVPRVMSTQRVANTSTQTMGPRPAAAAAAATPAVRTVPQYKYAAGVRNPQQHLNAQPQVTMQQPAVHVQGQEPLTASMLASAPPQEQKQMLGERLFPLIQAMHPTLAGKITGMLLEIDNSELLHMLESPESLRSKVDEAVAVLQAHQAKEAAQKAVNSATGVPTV
smiles,measurement,value
COc1cc([CH+][N-]NC(=O)c2ccc(O)cc2)ccc1OCC(=O)Nc1cccc([N+](=O)[O-])c1,IC50,> 100 µM
